According to paper PMC5663708, “Novel Benzylidene Thiazolidinedione Derivatives as Partial PPARγ Agonists and their Antidiabetic Effects on Type 2 Diabetes” (Scientific Reports, 2017):

Tests used:
[1] = tested on: STZ-NA-induced diabetic rats; experiment: Antidiabetic activity in STZ-NA-induced type 2 diabetic rats
Method: The test dose was fixed based on the predicted LD50 value. […] Diabetic rats were orally treated with the test compounds at a dose of 36 mg/kg body weight for a period of 15 days. Fasting blood glucose of control, diabetic-untreated and diabetic-treated rats were tested on Days 1, 3, 7 and 15 of the treatment period (Fig. 6A).
Male Wistar strain rats weighing about 160–200 g were used for animal studies. […] Rats were provided with rodent diet and water ad libitum. […] The animals were allowed to drink 5% glucose solution overnight to prevent STZ-NA-induced hypoglycemia[82],[83]. The rats were considered as diabetic if their blood glucose levels were above 250 mg/dL on the 3rd day after STZ-NA injection. The rats were divided into four groups of six animals in each group. Control animals received normal saline (Group I). Diabetic rats received STZ-NA injection (Group II). […] The blood glucose level of each group was checked at 1, 3, 7 and 15 Day by withdrawing blood from tail vein of the animal using glucose meter (ACCu-Chek active, Roche, Diagnostics USA).
After pharmacological screening for antidiabetic activity, the animals were subjected to overnight fasting and blood was collected from retro-orbital region under light anaesthesia for performing various biochemical experiments. All the biochemical experiments were performed using commercially available kits. Total Hb was estimated by cyanomethaemoglobin method, while HbA1c was estimated from whole blood using commercially available kits following the manufacturer guidelines (ERBA Diagnostics Inc, Accurex Biomedical Pvt. Ltd., Coral clinical systems, India). TG concentration was determined by GPO-POD enzymatic-colorimetric method. TC level was measured by the end point, CHOD-POD colorimetric methods. HDL-C was assayed by the method reported earlier. VLDL-C and LDL-C in plasma were calculated by the Friedewald formula: VLDL-C = TG/5; LDL-C = TC-(HDL-C + VLDL-C)[88]. Levels of serum urea, uric acid, and creatinine were measured using commercially available kits[89].
Rats were sacrificed under light anesthesia using diethylether at the end of the pharmacological and biochemical studies. […] Then, the tissue was sliced out into sections of 5 µm thickness by a rotator microtome and stained with hematoxylin-eosin. Obtained sections were examined by a Leica DME microscope, and representative photomicrographs were taken by a 7.1 megapixel Canon Power Shot S70 digital camera.

[2] = tested on: NIH/3T3 mouse embryonic fibroblast cells; experiment: XTT cytotoxicity assay on NIH/3T3 cells; conditions: Mus musculus, NIH3T3, 24 h
Method: XTT is reduced to soluble formazan by this enzyme and formazan is quantified and directly proportional to the number of viable cells. […] NIH/3T3 cells were seeded at 1 × 10^4 cells into each well of 96-well plates. […] The XTT assay (Xenometrix, Allschwil, Switzerland) was performed according to the manufacturer’s instructions, after 24 h incubation with the compounds. The absorbance was determined after 2 h incubation at 480 nm with a reference wavelength of 680 nm using a microplate reader (BioTek, USA). […] The stock solutions of the compounds were prepared in DMSO and further dilutions were made with fresh culture medium. The final DMSO concentration was under 0.1%. Rosiglitazone and Pioglitazone were used as positive controls. All data were obtained from 3 independent experiments in quadruplicates.

human PPARγ (hPPARγ) = target: T1, human PPARγ (hPPARγ) (Homo sapiens, UniProt P37231); parameters: method as in earlier work; conditions: PPARγ activity of metaglidasen; cited from earlier work
T1 construct: expressed in transfected cells; host or cells: HepG2 (human hepatoblastoma), transient calcium phosphate transfection
T1 sequence (P37231 238-503 limits assumed): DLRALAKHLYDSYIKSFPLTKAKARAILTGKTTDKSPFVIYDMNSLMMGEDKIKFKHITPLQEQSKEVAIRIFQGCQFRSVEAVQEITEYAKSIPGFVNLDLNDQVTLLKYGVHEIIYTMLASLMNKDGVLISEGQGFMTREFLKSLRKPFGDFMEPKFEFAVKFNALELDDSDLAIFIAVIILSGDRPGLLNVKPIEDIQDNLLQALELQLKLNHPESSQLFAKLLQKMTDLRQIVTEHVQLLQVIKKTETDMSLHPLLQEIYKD

SMILES	blood glucose levels ([1]; 36 mg/kg oral, 15 days, vs diabetic control rats)	Hb levels ([1]; 36 mg/kg oral, 15 days, vs disease control (STZ + NA))	histological changes of pancreas (islets, β-cells) ([1]; 36 mg/kg, light microscopy, hematoxylin-eosin)	IC50 [2] [µM]	EC50 (human PPARγ (hPPARγ)) [µM]	Emax (human PPARγ (hPPARγ))
CCc1ccc(CCOc2ccc(CC3SC(=O)NC3=O)cc2)nc1 (stereo not shown) [Pioglitazone, reference compound]	significantly reduced	significant increase	restored to near normal	> 1000	–	–
CN(CCOc1ccc(CC2SC(=O)NC2=O)cc1)c1ccccn1 (stereo not shown) [Rosiglitazone, reference compound]	–	–	–	662 ± 18	–	–
CC(=O)NCCOC(=O)[C@H](Oc1cccc(C(F)(F)F)c1)c1ccc(Cl)cc1 [metaglidasen]	–	–	–	–	~10	around 10%
